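1) Cells in 96-well plates. 2) Compound, 48 h, 5 concentrations. 3) Linear interpolation between surrounding doses. 4) Unreached endpoint = highest concentration. GI50: concentration for 50% inhibition of growth. TGI denotes the concentration required for complete inhibition of growth.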
Columns and labels:
Experiment in all cases: NCI tumour cell line growth inhibition, 48 h
786-0 renal = tested on: 786-0 renal
A498 renal = tested on: A498 renal
A549 NSCLC = tested on: A549 NSCLC
ACHN renal = tested on: ACHN renal
BT-549 breast = tested on: BT-549 breast
CAKI-1 renal = tested on: CAKI-1 renal
CCRF-CEM leukemia = tested on: CCRF-CEM leukemia
COLO 205 colon = tested on: COLO 205 colon
DU-145 prostate = tested on: DU-145 prostate
EKVX NSCLC = tested on: EKVX NSCLC
HCC-2998 colon = tested on: HCC-2998 colon
HCT-116 colon = tested on: HCT-116 colon
HCT-15 colon = tested on: HCT-15 colon
HL-60(TB) leukemia = tested on: HL-60(TB) leukemia
HOP-62 NSCLC = tested on: HOP-62 NSCLC
HOP-92 NSCLC = tested on: HOP-92 NSCLC
HS 578T breast = tested on: HS 578T breast
HT29 colon = tested on: HT29 colon
IGROV1 ovarian = tested on: IGROV1 ovarian
K-562 leukemia = tested on: K-562 leukemia
KM12 colon = tested on: KM12 colon
LOX IMVI melanoma = tested on: LOX IMVI melanoma
M14 melanoma = tested on: M14 melanoma
MALME-3M melanoma = tested on: MALME-3M melanoma
MCF7 breast = tested on: MCF7 breast
MDA-MB-231 breast = tested on: MDA-MB-231 breast
MDA-MB-435 = tested on: MDA-MB-435
MOLT-4 leukemia = tested on: MOLT-4 leukemia
NCI-H226 lung = tested on: NCI-H226 lung
NCI-H23 lung = tested on: NCI-H23 lung
NCI-H460 lung = tested on: NCI-H460 lung
NCI-H522 lung = tested on: NCI-H522 lung
NCI/ADR-RES ovarian = tested on: NCI/ADR-RES ovarian
OVCAR-3 ovarian = tested on: OVCAR-3 ovarian
OVCAR-4 ovarian = tested on: OVCAR-4 ovarian
OVCAR-5 ovarian = tested on: OVCAR-5 ovarian
OVCAR-8 ovarian = tested on: OVCAR-8 ovarian
PC-3 prostate = tested on: PC-3 prostate
RPMI-8226 leukemia = tested on: RPMI-8226 leukemia
RXF 393 renal = tested on: RXF 393 renal
SF-268 CNS = tested on: SF-268 CNS
SF-295 CNS = tested on: SF-295 CNS
SK-MEL-2 melanoma = tested on: SK-MEL-2 melanoma
SK-MEL-28 melanoma = tested on: SK-MEL-28 melanoma
SK-MEL-5 melanoma = tested on: SK-MEL-5 melanoma
SK-OV-3 ovarian = tested on: SK-OV-3 ovarian
SN12C renal = tested on: SN12C renal
SNB-19 CNS = tested on: SNB-19 CNS
SNB-75 CNS = tested on: SNB-75 CNS
SR leukemia = tested on: SR leukemia
SW-620 colon = tested on: SW-620 colon
T-47D breast = tested on: T-47D breast
TK-10 renal = tested on: TK-10 renal
U251 CNS = tested on: U251 CNS
UACC-257 melanoma = tested on: UACC-257 melanoma
UACC-62 melanoma = tested on: UACC-62 melanoma
UO-31 renal = tested on: UO-31 renal

In the case of `CC12OC(CC(O)C1O)n1c3ccccc3c3c4c(c5c6ccccc6n2c5c31)C(=O)N(CCN1CCCC1)C4=O` (centres undefined), the GI50 (786-0 renal) is reported as 1.29 µM, the TGI (786-0 renal) is reported as 6.36 µM and the GI50 (A498 renal) is reported as 1.5 µM. For the same molecule, the TGI (A498 renal) was 7.5 µM, the GI50 (A549 NSCLC) was 0.282 µM and the TGI (A549 NSCLC) was 6.17 µM. It also gave a GI50 (ACHN renal) of 0.336 µM, a TGI (ACHN renal) of 2.34 µM and a GI50 (BT-549 breast) of 3.85 µM. It also gave a TGI (BT-549 breast) of 11.5 µM, a GI50 (CAKI-1 renal) of 1.41 µM and a TGI (CAKI-1 renal) of 9.01 µM. For the same molecule, the GI50 (CCRF-CEM leukemia) was 0.936 µM, the TGI (CCRF-CEM leukemia) was 10.7 µM and the GI50 (COLO 205 colon) was 0.377 µM. For the same molecule, the TGI (COLO 205 colon) was 6.16 µM, the GI50 (DU-145 prostate) was 1.06 µM and the TGI (DU-145 prostate) was 5.82 µM. For the same molecule, the GI50 (EKVX NSCLC) was 1.67 µM, the TGI (EKVX NSCLC) was 9.64 µM and the GI50 (HCC-2998 colon) was 3.96 µM. For the same molecule, the TGI (HCC-2998 colon) was 10.8 µM, the GI50 (HCT-116 colon) was 0.321 µM and the TGI (HCT-116 colon) was 6.35 µM. It also gave a GI50 (HCT-15 colon) of 1 µM, a TGI (HCT-15 colon) of 6.77 µM and a GI50 (HL-60(TB) leukemia) of 0.562 µM. The TGI (HL-60(TB) leukemia) was 8.7 µM, the GI50 (HOP-62 NSCLC) was 0.424 µM and the TGI (HOP-62 NSCLC) was 5.71 µM. For the same molecule, the GI50 (HOP-92 NSCLC) was 3.85 µM, the TGI (HOP-92 NSCLC) was 10.3 µM and the GI50 (HS 578T breast) was 3.05 µM. The TGI (HS 578T breast) was 13.8 µM, the GI50 (HT29 colon) was 0.434 µM and the TGI (HT29 colon) was 7.07 µM. It also gave a GI50 (IGROV1 ovarian) of 0.951 µM, a TGI (IGROV1 ovarian) of 10.8 µM and a GI50 (K-562 leukemia) of 0.68 µM. It also gave a TGI (K-562 leukemia) of 19.4 µM, a GI50 (KM12 colon) of 1.3 µM and a TGI (KM12 colon) of 8.68 µM. For the same molecule, the GI50 (LOX IMVI melanoma) was 0.308 µM, the TGI (LOX IMVI melanoma) was 1.45 µM and the GI50 (M14 melanoma) was 1.23 µM. It also gave a TGI (M14 melanoma) of 7.64 µM, a GI50 (MALME-3M melanoma) of 1.3 µM and a TGI (MALME-3M melanoma) of 8.41 µM. The GI50 (MCF7 breast) was 0.199 µM, the TGI (MCF7 breast) was 5.88 µM and the GI50 (MDA-MB-231 breast) was 3.38 µM. The TGI (MDA-MB-231 breast) was 11.2 µM, the GI50 (MDA-MB-435) was 1.7 µM and the TGI (MDA-MB-435) was 8.11 µM. For the same molecule, the GI50 (MOLT-4 leukemia) was 0.197 µM, the TGI (MOLT-4 leukemia) was 16.5 µM and the GI50 (NCI-H226 lung) was 1.42 µM. It also gave a TGI (NCI-H226 lung) of 11.4 µM, a GI50 (NCI-H23 lung) of 1.24 µM and a TGI (NCI-H23 lung) of 7.95 µM. It also gave a GI50 (NCI-H460 lung) of 0.161 µM, a TGI (NCI-H460 lung) of 1.06 µM and a GI50 (NCI-H522 lung) of 0.606 µM. For the same molecule, the TGI (NCI-H522 lung) was 5.4 µM, the GI50 (NCI/ADR-RES ovarian) was 6.31 µM and the TGI (NCI/ADR-RES ovarian) was 14.5 µM. The GI50 (OVCAR-3 ovarian) was 1.77 µM, the TGI (OVCAR-3 ovarian) was 8.95 µM and the GI50 (OVCAR-4 ovarian) was 1.88 µM. For the same molecule, the TGI (OVCAR-4 ovarian) was 12.3 µM, the GI50 (OVCAR-5 ovarian) was 2.25 µM and the TGI (OVCAR-5 ovarian) was 14.9 µM. For the same molecule, the GI50 (OVCAR-8 ovarian) was 1.1 µM, the TGI (OVCAR-8 ovarian) was 9.12 µM and the GI50 (PC-3 prostate) was 1.79 µM. For the same molecule, the TGI (PC-3 prostate) was 9.13 µM, the GI50 (RPMI-8226 leukemia) was 1.32 µM and the TGI (RPMI-8226 leukemia) was 4.43 µM. It also gave a GI50 (RXF 393 renal) of 1.23 µM, a TGI (RXF 393 renal) of 7.25 µM and a GI50 (SF-268 CNS) of 0.789 µM. The TGI (SF-268 CNS) was 8.47 µM, the GI50 (SF-295 CNS) was 0.291 µM and the TGI (SF-295 CNS) was 5.96 µM. It also gave a GI50 (SK-MEL-2 melanoma) of 5.16 µM, a TGI (SK-MEL-2 melanoma) of 12.9 µM and a GI50 (SK-MEL-28 melanoma) of 2.24 µM. It also gave a TGI (SK-MEL-28 melanoma) of 9.7 µM, a GI50 (SK-MEL-5 melanoma) of 1.22 µM and a TGI (SK-MEL-5 melanoma) of 7.12 µM. It also gave a GI50 (SK-OV-3 ovarian) of 1.57 µM, a TGI (SK-OV-3 ovarian) of 6.99 µM and a GI50 (SN12C renal) of 0.577 µM. The TGI (SN12C renal) was 6.64 µM, the GI50 (SNB-19 CNS) was 1.25 µM and the TGI (SNB-19 CNS) was 9.29 µM. For the same molecule, the GI50 (SNB-75 CNS) was 0.879 µM, the TGI (SNB-75 CNS) was 6.71 µM and the GI50 (SR leukemia) was 0.149 µM. For the same molecule, the TGI (SR leukemia) was 6.08 µM, the GI50 (SW-620 colon) was 0.31 µM and the TGI (SW-620 colon) was 7.22 µM. For the same molecule, the GI50 (T-47D breast) was 0.868 µM, the TGI (T-47D breast) was 7.94 µM and the GI50 (TK-10 renal) was 1.21 µM. For the same molecule, the TGI (TK-10 renal) was 10.4 µM, the GI50 (U251 CNS) was 0.488 µM and the TGI (U251 CNS) was 6.51 µM. For the same molecule, the GI50 (UACC-257 melanoma) was 3.54 µM, the TGI (UACC-257 melanoma) was 11.8 µM and the GI50 (UACC-62 melanoma) was 0.513 µM. The TGI (UACC-62 melanoma) was 2.58 µM, the GI50 (UO-31 renal) was 1.5 µM and the TGI (UO-31 renal) was 9.95 µM.

From PubChem BioAssay (NCI)
